# Source: US5294609A, “DNA gyrase inhibitors and pharmaceutical preparations therefor” (Hoffmann-LaRoche Inc., priority 1991, dated 1994)
# What was measured:
# DNA gyrase = target: T1, DNA gyrase (Escherichia coli, UniProt P0AES6); assay: Inhibition of DNA gyrase activity (DNA gyrase supercoiling assay); type: biochemical, E. coli H560; details: relaxed PUC18 substrate
# T1 construct: supercoiling of relaxed pUC18 plasmid
# Protocol: The inhibition of DNA gyrase activity was measured using a DNA gyrase supercoiling assay according to R. Otter & N. Cozzarelli:Methods in Enzymology, Vol. 100, pp 171-180 (1983). DNA gyrase was isolated from E. coli H560, and relaxed PUC18 plasmed was used as substrate. The activities as regards inhibition of DNA gyrase activity, expressed as maximum non-effective concentration of the test compound (MNC in μg/ml) are compiled in the following Table 4: […]
# B. catarrhalis RA 117 = assay: Antibacterial activity in vitro (MIC, agar dilution); type: cell-based; details: Moraxella catarrhalis, RA117, agar dilution (BB2 + 1% Isovitalex + 7.5% sheep blood + metadione), inoculum 10^4 CFU/spot, read-out: minimum inhibitory concentration (MIC)
# Description: (§1) In the following table there are complied the minimum inhibitory concentrations (MIC; μg/ml) of some representative compounds of formula I against a series of pathogenic microorganisms.
# (§2) Agar dilution (BB2 + 1% Isovitalex + 7.5% sheep blood + metadione),
# (§3) Inoculum: 10^4 CFU/spot;
# E. coli B = assay: as above; type: cell-based; details: Escherichia coli, agar dilution (BB2 + 1% Isovitalex + 7.5% sheep blood + metadione), inoculum 10^4 CFU/spot, read-out: minimum inhibitory concentration (MIC)
# Description: as §1, §2, §3
# S. aureus 25923 = assay: as above; type: cell-based; details: Staphylococcus aureus, agar dilution (BB2 + 1% Isovitalex + 7.5% sheep blood + metadione), inoculum 10^4 CFU/spot, read-out: minimum inhibitory concentration (MIC)
# Description: as §1, §2, §3
# S. faecalis 6 = assay: as above; type: cell-based; details: Enterococcus faecalis, agar dilution (BB2 + 1% Isovitalex + 7.5% sheep blood + metadione), inoculum 10^4 CFU/spot, read-out: minimum inhibitory concentration (MIC)
# Description: as §1, §2, §3
# S. aureus 887 = assay: as above; type: cell-based; details: Staphylococcus aureus, agar dilution (BB2 + 1% Isovitalex + 7.5% sheep blood + metadione), inoculum 10^4 CFU/spot, read-out: minimum inhibitory concentration (MIC)
# Description: as §1, §2, §3
# S. pyogenes 15 = assay: as above; type: cell-based; details: Streptococcus pyogenes, agar dilution (BB2 + 1% Isovitalex + 7.5% sheep blood + metadione), inoculum 10^4 CFU/spot, read-out: minimum inhibitory concentration (MIC)
# Description: as §1, §2, §3
# E. coli DC2 = assay: as above; type: cell-based; details: Escherichia coli, agar dilution (BB2 + 1% Isovitalex + 7.5% sheep blood + metadione), inoculum 10^4 CFU/spot, read-out: minimum inhibitory concentration (MIC)
# N. meningitidis 69480 = assay: as above; type: cell-based; details: Neisseria meningitidis, agar dilution (BB2 + 1% Isovitalex + 7.5% sheep blood + metadione), inoculum 10^4 CFU/spot, read-out: minimum inhibitory concentration (MIC)
# S. filipinensis IFO12860 = assay: Streptomycin sensitivity of S. filipinensis IFO12860; type: cell-based; details: Streptomyces filipinensis, IFO12860, read-out: Streptomycin sensitivity (M.I.C.)
# Protocol: (§4) The taxonomic studies were done according to the procedure adopted by the International Streptomyces Project (ISP) using the media recommended by Shining, E. B. and D. Gottlieb (Method for characterization of Streptomyces species; Intern. J. Syst. Bact. 16:313-340, 1966) and by Waksman, S. A. (Classification, identification and description of genera and species; in The Actinomycetes Vol. II; The Williams and Wilkins Co., Baltimore, 1961). All cultures were incubated at 27° C. for 15 days. The colour scheme in the Colour Harmony Manual (4th ed., 1958; Container Corporation of America, Chicago) was used to describe the pigmentation of the colonies. Sodium chloride tolerance of the strains and their growth at various temperatures were tested on ISP medium No. 3 (Difco) containing 0.15% yeast extract; and streptomycin sensitivity of the strains were tested on ISP medium No. Z (Difco).
# strain NR0484 = assay: Streptomycin sensitivity of strain NR0484; type: cell-based, Streptomyces sp. NR0484 (Streptomyces filipinensis); details: Streptomyces, ISP medium No. Z (Difco), read-out: Streptomycin sensitivity (M.I.C.)
# Protocol: as §4
# [1] = Physicochemical properties of compound Ia
Structure (SMILES),maximum non-effective concentration of the test compound (MNC) (DNA gyrase),MIC (B. catarrhalis RA 117),MIC (E. coli B),MIC (S. aureus 25923),MIC (S. faecalis 6),MIC (S. aureus 887),MIC (S. pyogenes 15),MIC (E. coli DC2),MIC (N. meningitidis 69480),further results
"COC(=O)[C@@H]1CSCc2c(O)cc(O)c(C)c2C(=O)OC[C@H](N)C(=O)N1 [Example 6, methyl (4R,7S)-7-amino-1,3,4,5,6,7,8,10-octahydro-12,14-dihydro-11-methyl-6,10-dioxo-9,2,5-benzoxathiaazacyclododecine-4-carboxylate]",2 µg/mL,,,,,,,,,
"CCOC(=O)[C@@H]1CSCc2c(O)cc(OC)c(C)c2C(=O)OC[C@H](NC(C)=S)C(=O)N1 [Example 102, ethyl (4R,7S)-1,3,4,5,6,7,8,10-octahydro-14-hydroxy-12-methoxy-11-methyl-6,10-dioxo-7-thioacetamido-9,2,5-benzoxathiaazacyclododecine-4-carboxylate]",0.25 µg/mL,2 µg/mL,64 µg/mL,16 µg/mL,16 µg/mL,8 µg/mL,8 µg/mL,64 µg/mL,2 µg/mL,
"C=CCNC(=O)[C@@H]1CSCc2c(O)cc(OC)c(C)c2C(=O)OC[C@H](NC(=O)OC(C)(C)C)C(=O)N1 [Example 84, (4R,7S)-7-tert-butoxycarbonylamino-1,3,4,5,6,7,8,10-octahydro-14-hydroxy-l2-methoxy-11-methyl-6,10-dioxo-9,2,5-benzoxathiaazacyclododecine-4-carboxylic acid allylamide]",0.1 µg/mL,4 µg/mL,> 128 µg/mL,32 µg/mL,32 µg/mL,16 µg/mL,16 µg/mL,> 128 µg/mL,4 µg/mL,
"Cc1c(O)cc(O)c2c1C(=O)OC[C@H](NC(=O)OC(C)(C)C)C(=O)N[C@H](C(=O)O)CSC2 [Example 3, (4R,7S)-7-(L-t-butoxyformamido)-1,3,4,5,6,7,8,10-octahydro-12,14-dihydroxy-11-methyl-6,10-dioxo-9,2,5-benzoxathiaazacyclododecine-4-carboxylic acid]",5 µg/mL,,,,,,,,,
"Cc1c(O)cc(O)c2c1C(=O)OC[C@H](N)C(=O)NCCSC2 [Example 9, (S)-7-amino-4,5,7,8-tetrahydro-12,14-dihydroxy-11-methyl-9,2,5-benzoxathiaazacyclododecine-6,10(1H,3H)-dione]",1 µg/mL,,,,,,,,,
"COC(=O)N[C@H]1COC(=O)c2c(C)c(OC)cc(O)c2CSC[C@@H](C(=O)OC)NC1=O [Example 137, Methyl (4R,7S)-1,3,4,5,6,7,8,10-octahydro-14-hydroxy-12-methoxy-4-methoxycarbonyl-11-methyl-6,10-dioxo-9,2,5-benzoxathiaazacyclododecine-7-carbamate]",0.2 µg/mL,4 µg/mL,64 µg/mL,128 µg/mL,64 µg/mL,32 µg/mL,8 µg/mL,64 µg/mL,8 µg/mL,
"COC(=O)[C@@H]1CSCc2c(O)cc(OC)c(C)c2C(=O)OC[C@H](O)C(=O)N1 [Example 41, methyl (4R,7S)-1,3,4,5,6,7,8,10-octahydro-7,14-dihydroxy-12-methoxy-11-methyl-6,10-dioxo-9,2,5-benzoxathiaazacyclododecine-4-carboxylate]",0.1 µg/mL,4 µg/mL,128 µg/mL,32 µg/mL,32 µg/mL,32 µg/mL,16 µg/mL,,8 µg/mL,
"CO/N=C(\C(=O)N[C@H]1COC(=O)c2c(C)c(OC(C)=O)cc(OC(C)=O)c2CSC[C@@H](C(=O)OC)NC1=O)c1csc(N)n1 [Example 10, methyl (4R,7S)-12,14-diacetoxy-7-[(Z)-2-(2-amino-4-thiazolyl) -2-(methoxyimino)acetamido]-1,3,4,5,6,7,8,10-octahydro-11-methyl-6,10-dioxo-9,2,5-benzoxathiaazacyclododecine-4-carboxylate]",10 µg/mL,,,,,,,,,
"Cc1c(O)cc(O)c2c1C(=O)OC[C@H](N)C(=O)N[C@H](C(=O)O)CSC2 [Example 4, (4R,7S)-7-amino-1,3,4,5,6,7,8,10-octahydro-12,14-dihydro-11-methyl-6,10-dioxo-9,2,5-benzoxathiaazacyclododecine-4-carboxylic acid]",1 µg/mL,,,,,,,,,
"CCOC(=O)[C@@H]1CSCc2c(O)cc(OC)c(C)c2C(=O)OC[C@H](NC=O)C(=O)N1 [Example 69, ethyl (4R,7S)-7-formamido-1,3,4,5,6,7,8,10-octahydro-14-hydroxy-12-methoxy-11-methyl-6,10-dioxo-9,2,5-benzoxathiaazacyclododecine-4-carboxylate]",0.05 µg/mL,4 µg/mL,32 µg/mL,128 µg/mL,16 µg/mL,32 µg/mL,4 µg/mL,16 µg/mL,,
"COC(=O)[C@@H]1CSCc2c(O)cc(OC)cc2C(=O)OCCC(=S)N1 [Example 101, methyl (4R)-1,3,4,5,6,7,8,10-octahydro-14-hydroxy-12-methoxy-10-oxo-6-thioxo-9,2,5-benzoxathiaazacyclododecine-4-carboxylate]",0.1 µg/mL,4 µg/mL,64 µg/mL,16 µg/mL,32 µg/mL,16 µg/mL,16 µg/mL,64 µg/mL,8 µg/mL,
"COC(=O)[C@@H]1CSCc2c(O)cc(O)c(C)c2C(=O)OC[C@H](NC(=O)OC(C)(C)C)C(=O)N1 [Example 2, t-butyl (4R,7S)-1,3,4,5,6,7,8,10-octahydro-12,14-dihydroxy-4-methoxycarbonyl-11-methyl-6,10-dioxo-9,2,5-benzoxathiaazacyclododecine-7-carbamate]",0.1 µg/mL,,,,,,,,,maximum non-effective concentration of the test compound (MNC) (DNA gyrase; listed as 13): 0.05 µg/mL
[H]/N=C(/N)N[C@H]1[C@H](O)[C@@H](O)[C@H](O[C@@H]2O[C@@H](C)[C@](O)(C=O)[C@H]2O[C@@H]2O[C@@H](CO)[C@H](O)[C@@H](O)[C@@H]2NC)[C@@H](N/C(N)=N\[H])[C@@H]1O [Streptomycin],,,,,,,,,,MIC (S. filipinensis IFO12860): 6300 µg/mL; MIC (strain NR0484): 6300 µg/mL
"COC(=O)[C@@H]1CSCc2c(OC(C)=O)cc(OC(C)=O)c(C)c2C(=O)OC[C@H](N)C(=O)N1 [Example 5, methyl (4R,7S)-12,14-diacetoxy-7-amino-1,3,4,5,6,7,8,10-octahydro-11-methyl-6,10-dioxo-9,2,5-benzoxathiaazacyclododecine-4-carboxylate]",10 µg/mL,,,,,,,,,
"Cc1c(O)cc(O)c2c1C(=O)OC[C@H](NC(=O)[C@@H]1[C@H](O)CCN1C(=O)[C@@H](N)CO)C(=O)N[C@H](C(=O)N[C@@H](C)C(=O)O)CSC2 [Example 12, N-[[(4R,7S)-1,3,4,5,6,7 8,10-octahydro-12,14-dihydroxy-7-[[(3R)-3-hydroxy-1-L-seryl-L-prolyl]amino]-11-methyl-6,10-dioxo-9,2,5-benzoxathiaazacyclododecin-4-yl]carbonyl]-L-alanine]",5 µg/mL,,,,,,,,,solubility (in words) [1]: water soluble
